# Data from the Kinase Knowledgebase extract (Sharma et al. 2016).
# Molecular target: MAPK14 (human) (UniProt Q16539)
# Test: Inhibition of MAPK14 Kinase Activity
# Chain of MAPK14 (human) (Q16539 whole entry, looked up): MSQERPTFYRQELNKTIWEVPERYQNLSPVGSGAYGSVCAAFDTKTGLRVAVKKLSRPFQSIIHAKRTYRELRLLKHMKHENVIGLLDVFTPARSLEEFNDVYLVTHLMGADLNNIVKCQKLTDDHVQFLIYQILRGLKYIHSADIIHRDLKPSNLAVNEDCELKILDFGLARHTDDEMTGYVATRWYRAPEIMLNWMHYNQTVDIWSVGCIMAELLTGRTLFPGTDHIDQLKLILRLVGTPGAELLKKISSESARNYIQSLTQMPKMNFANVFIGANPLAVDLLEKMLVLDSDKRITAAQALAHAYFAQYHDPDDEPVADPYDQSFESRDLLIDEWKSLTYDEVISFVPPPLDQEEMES
row,IC50 [nM],Structure (SMILES)
1,≤ 2000,CCOC(=O)c1cc2c(ccc(=O)n2-c2ccccc2)n1Cc1cccc(C)c1
2,≤ 2000,NC(=O)c1cc2c(ccc(=O)n2-c2ccc3[nH]ccc3c2)n1Cc1cccc(Cl)c1
3,≤ 2000,COc1cccc(Cn2ccc3c2ccc(=O)n3-c2ccccc2)c1
4,≤ 2000,O=c1ccc2c(ccn2Cc2ccc(Cl)c(Cl)c2)n1-c1ccccc1
5,≤ 2000,O=c1ccc2c(cc(S(=O)(=O)N3CCCC3)n2Cc2cccc(Cl)c2)n1-c1ccccc1
6,≤ 2000,O=c1ccc2c(ccn2Cc2cccc(Cl)c2)n1-c1ccccc1
7,≤ 2000,O=c1ccc2c(ccn2Cc2cccc(Cl)c2)n1-c1ccsc1
8,≤ 2000,Cc1cccc(Cn2ccc3c2ccc(=O)n3-c2ccccc2)c1
9,≤ 2000,CCOC(=O)c1cc2c(ccc(=O)n2-c2ccsc2)n1Cc1cccc(Cl)c1
10,≤ 2000,O=C(c1ccccc1)n1ccc2c1ccc(=O)n2-c1ccccc1
11,≤ 2000,CCOC(=O)c1cc2c(ccc(=O)n2-c2ccccc2)n1Cc1cccc(Cl)c1
12,≤ 2000,O=c1ccc2c(ccn2Cc2nc3ccccc3s2)n1-c1ccccc1
13,≤ 2000,O=C(c1cc2c(ccc(=O)n2-c2ccccc2)n1Cc1cccc(Cl)c1)N1CCCC1
14,≤ 2000,CCOC(=O)c1cc2c(ccc(=O)n2-c2ccccc2[N+](=O)[O-])n1Cc1cccc(Cl)c1
15,≤ 2000,O=c1ccc2c(ccn2Cc2ccccc2)n1-c1ccccc1
16,≤ 2000,CNC(=O)c1cc2c(ccc(=O)n2-c2ccccc2)n1Cc1cccc(Cl)c1
17,≤ 2000,CCOC(=O)c1cc2c(ccc(=O)n2-c2ccccc2)n1Cc1ccc(F)c(C)c1
18,≤ 2000,COc1ccc(-n2c(=O)ccc3c2ccn3Cc2ccccc2)cc1
19,≤ 2000,CON(C)C(=O)c1cc2c(ccc(=O)n2-c2ccccc2)n1Cc1cccc(Cl)c1
20,≤ 2000,Cc1ccc(-n2c(=O)ccc3c2cc(C(N)=O)n3Cc2cccc(Cl)c2)cc1
21,≤ 2000,N#Cc1ccccc1Cn1c(C(N)=O)cc2c1ccc(=O)n2-c1ccccc1
22,≤ 2000,Cc1ccc(Cn2ccc3c2ccc(=O)n3-c2ccccc2)cc1
23,≤ 2000,Cc1ccccc1Cn1ccc2c1ccc(=O)n2-c1ccccc1
24,≤ 2000,CC(c1ccccc1)n1ccc2c1ccc(=O)n2-c1ccccc1 (stereo not drawn)
25,≤ 2000,N#Cc1ccc(Cn2ccc3c2ccc(=O)n3-c2ccccc2)cc1
26,≤ 2000,CCOC(=O)c1cc2c(ccc(=O)n2-c2ccc3[nH]ccc3c2)n1Cc1cccc(Cl)c1

row,IC50 [nM],Structure (SMILES)
1,≤ 2000,CON(C)C(=O)c1cc2c(ccc(=O)n2-c2ccccc2)n1Cc1ccc(F)c(Cl)c1
2,≤ 2000,Cc1cc(Cn2c(C(N)=O)cc3c2ccc(=O)n3-c2ccccc2)ccc1F
3,≤ 2000,O=c1ccc2c(ccn2Cc2ccc(Cl)cc2)n1-c1ccccc1
4,≤ 2000,O=c1ccc2c(ccn2Cc2ccncc2)n1-c1ccccc1
5,≤ 2000,O=c1ccc2c(ccn2Cc2c(Cl)cccc2Cl)n1-c1ccccc1
6,≤ 2000,O=c1ccc2c(ccn2Cc2ccc(F)cc2)n1-c1ccccc1
7,≤ 2000,O=c1ccc2c(ccn2Cc2ccc(F)c(Cl)c2)n1-c1ccccc1
8,≤ 2000,CN(C)C(=O)c1cc2c(ccc(=O)n2-c2ccccc2)n1Cc1cccc(Cl)c1
9,≤ 2000,Cc1ccc(-n2c(=O)ccc3c2cc(C(=O)NN)n3Cc2cccc(Cl)c2)cc1
10,≤ 2000,N#Cc1cc2c(ccc(=O)n2-c2ccccc2)n1Cc1cccc(Cl)c1
11,≤ 2000,Cc1cccc(Cn2c(C(N)=O)cc3c2ccc(=O)n3-c2ccccc2)c1
12,≤ 2000,O=c1ccc2c(ccn2Cc2cc(Cl)ccc2Cl)n1-c1ccccc1
13,≤ 2000,O=c1ccc2c(ccn2Cc2ccc(Cl)s2)n1-c1ccccc1
14,≤ 2000,CCOC(=O)c1cc2c(ccc(=O)n2-c2ccccc2)n1Cc1ccc(F)c(Cl)c1
15,≤ 2000,CCOC(=O)c1cc2c(ccc(=O)n2-c2ccccc2)n1Cc1ccccc1
16,≤ 2000,O=c1ccc2c(ccn2Cc2ccc(F)cc2F)n1-c1ccccc1
17,≤ 2000,NC(=O)c1cc2c(ccc(=O)n2-c2ccccc2)n1Cc1cccc(Cl)c1
18,≤ 2000,O=c1ccc2c(ccn2Cc2cccnc2)n1-c1ccccc1
19,≤ 2000,CCOC(=O)c1cc2c(ccc(=O)n2-c2ccc(C)cc2)n1Cc1cccc(Cl)c1
20,≤ 2000,N#Cc1cccc(Cn2ccc3c2ccc(=O)n3-c2ccccc2)c1
21,≤ 2000,O=c1ccc2c(ccn2Cc2ccc(F)c(F)c2)n1-c1ccccc1
22,≤ 2000,CON(C)C(=O)c1cc2c(ccc(=O)n2-c2ccccc2)n1Cc1cccc(C)c1
23,≤ 2000,Cc1cccc(Cn2c(C(=O)N3CCC[C@H]3CO)cc3c2ccc(=O)n3-c2ccccc2)c1
24,≤ 2000,NC(=O)c1cc2c(ccc(=O)n2-c2ccccc2)n1Cc1ccc(F)c(Cl)c1
25,≤ 2000,O=c1ccc2c(ccn2CCc2ccccc2)n1-c1ccccc1
26,≤ 2000,NNC(=O)c1cc2c(ccc(=O)n2-c2ccccc2)n1Cc1cccc(Cl)c1

row,Structure (SMILES),IC50 [nM]
1,O=C(c1cn(Cc2ccccc2)c2ccc(=O)n(-c3ccccc3)c12)C(F)(F)F,≤ 2000
